# In patent US4910318A, “Tetrahydrothiopyrano(3,2-b)-indole derivatives” (Shionogi & Co., Ltd., priority 1980, dated 1990):
# Counter-ions that a name gives are not always drawn.
# Legend:
# [1] = tested on: Carrageenin edema; assay: Anti-inflammatory activity (Carrageenin edema method); assay type: in vivo, JCl-Wistar female rats; settings: Rattus norvegicus; rats, oral, 30 min before carrageenin; swelling measured 3 hours later; read-out: Anti-inflammatory activity ED30 (Test (1))
# Description: (1) Anti-inflammatory activity (Carrageenin edema method)
# A 0.9% saline solution (0.05 ml) containing 1.0% carrageenin is used as phlogistic agent. After 30 minutes JCl-Wistar female rats (180-200 g, body weight) are orally administered a test compound, the phlogistic agent is injected subcutaneously into the plantar of the feet of the rats. The volume of swelling is measured 3 hours later and the anti-edema activity is determined by calculating a ratio (%) of the edematous volume of medicated foot to that of non-medicated foot.
# [2] = Acute toxicity; settings: mouse, in vivo; mice, oral, mortality at the 72nd hour; read-out: Acute toxicity LD50 (Test (3))
# Description: DS mice (20-23 g, male) are orally administered a suspension of test compound with gum arabic. The mortality at the 72nd hour is determined and the LD50 is calculated.
# [3] = tested on: Acetic acid writhing; assay: Analgesic activity (Acetic acid writhing method); assay type: in vivo, DS male mice; settings: Mus musculus; mice, oral, 30 min before acetic acid i.p.; writhing counted for 10 minutes; read-out: Analgesic activity ED50 (Test (2))
# Description: (2) Analgesic activity (Acetic acid writhing method)
# DS male mice (20-23 g, body weight) are treated with an intraperitoneal injection of 0.1 ml/10 g of 0.6% acetic acid 30 minutes after oral administration of a test compound. The number of writhing times for 10 minutes is counted and ED50 is calculated.
# [4] = tested on: spontaneous locomotion in mice; assay: Spontaneous locomotor increasing activity; assay type: in vivo; settings: for ED50: Mus musculus, 50% increase vs control, 95% confidence limits on next line, read-out: ED50 (increasing effect on spontaneous locomotion); for ED50 / % of increase of spontaneous locomotion: oral
# Description: (6) Spontaneous locomotor increasing activity
# For each group 3 mice were used. Spontaneous locomotor activity was recorded for 15 minutes by a Varimex activity meter from 15 minutes after oral administration of a test compound.
# [5] = tested on: bizarre behaviours of mice; assay: Hallucinogenic activity (bizarre behaviours); assay type: in vivo; settings: FIGS. 1 and 2
# Description: (8) Hallucinogenic activity
# Each of the five mice in each group was confined n a box for 15 minutes to let it adapt to its surroundings. The mouse was kept on a black disc of 74 cm in diameter for 2 minutes from 5 and 15 minutes after administration of a test compound. The number of bizarre behaviours (walking backwards, pivoting and the like) was counted.
# [6] = tested on: oxotremorine hypothermia; assay: Anti-cholinergic activity (Anti-oxotremorine hypothermia test); assay type: in vivo, mice; settings: for ED50: Mus musculus, mice, oral, 30 minutes before oxotremorine 0.5 mg/kg s.c.
# Description: (5) Anti-cholinergic activity (Anti-oxotremorine hypothermia test)
# Before each experiment the rectal temperature of the mice was recorded with a probe thermometer at a constant depth. The mice were divided into groups of 8 in such a way that the mean rectal temperature was the same in each group. Test compounds were administered orally 30 minutes before s.c. administration of oxotremorine (0.5 mg/kg).
# [7] = tested on: tetrabenazine ptosis; assay: Antidepressant activity: Anti-tetrabenazine ptosis test; assay type: in vivo, mice; settings: for ED50: Mus musculus, mice, oral, 1 hour before TBZ 50 mg/kg s.c., ptosis 1 hour after TBZ
# Description: (§1) (4) Antidepressant activity
# (4)-a Anti-tetrabenazine ptosis test
# Tetrabenazine (TBZ, 50 mg/kg s.c.) was administered to 5 mice for each group 1 hour after oral treatment with test compounds. […] (4=complete, 3=3/4, 2=1/2, 1=[…] closure of the eyelid, 0=normal).
# [8] = tested on: minimal electroshock seizures with reserpine; assay: Antidepressant activity: Anti-electroshock test with reserpine; assay type: in vivo, mice; settings: for ED50: Mus musculus, po, mice, p.o., 0.5 hour before reserpine 2.5 mg/kg s.c., 12 mA, 0.2 sec, 4 hours after reserpine
# Description: as §1
# (4)-b Anti-electroshock test with reserpine
# Seizures were induced by shocking mice (10 per dose) via a pair of corneal electrodes with current intensity of 12 mA and a duration of 0.2 sec 4 hours after administration of reserpine.
# [9] = tested on: spontaneous locomotion in mice; assay: Spontaneous locomotor decreasing activity; assay type: in vivo; settings: for ED50: Mus musculus, 50% decrease vs control, 95% confidence limits on a following line, read-out: ED50 (decreasing effect on spontaneous locomotion); for ED50 / % of decrease of spontaneous locomotion: mice, oral
# Text: (7) Spontaneous locomotor decreasing activity
# For each group 5 mice were used.
# [10] = compared with imipramine, Table 2
SMILES,ED30 [1],LD50 at 72 h [2],ED50 [3],ED50 [6],ED50 [7],ED50 [8],other results
"Cc1c(N(C)C)c(=O)n(-c2ccccc2)n1C [Aminopyrine, reference compound]",24 mg/kg,800 mg/kg,58 mg/kg,,,,
"CNCC1CCSc2c1n(C)c1ccccc21 (centres unmarked) [Compound 1, 4-Methylaminomethyl-5-methyl-2,3,4,5-tetrahydrothiopyrano[3,2-b]indole]",9.4 mg/kg,400 mg/kg,6.4 mg/kg,> 50 mg/kg,24.4 mg/kg,4.3 mg/kg,"ED50 ([4]; mice): 5.6 mg/kg; duration of spontaneous locomotion increasing activity ([4]; continuous/successive administration): more than 24 hours; effect on spontaneous locomotion (in words) ([4]; mice, Table 3): moderately increases spontaneous locomotion; strength of locomotion increasing activity compared with methamphetamine (in words) ([4]; mice, Table 3): does not have so strong increasing activity as methamphethamine; % of increase of spontaneous locomotion ([4]; mice, 5 mg/kg): 54.3%; % of increase of spontaneous locomotion ([4]; mice, 10 mg/kg): 91.4%; % of increase of spontaneous locomotion ([4]; mice, 20 mg/kg): 123.0%; hallucinogenic activity [5]: no hallucinogenic activity; anti-cholinergic activity (in words) ([6]; Table 2): no anti-cholinergic acitivity; anti-depressant activity (in words) [7, 10]: strong anti-depressant activity; anti-depressant activity (in words) [8, 10]: strong anti-depressant activity"
"CCn1c2c(c3ccccc31)SCCC2CNC (centres unmarked) [Compound 2, 4-methylaminomethyl-5-ethyl-2,3,4,5-tetrahydrothiopyrano[3,2-b]indole]",9.4 mg/kg,800 mg/kg,13.3 mg/kg,,,,
"CN(C)CC1CCSc2c1n(C)c1ccccc21 (centres unmarked) [Compound 3, 4-Dimethylaminomethyl-5-methyl-2,3,4,5-tetrahydrothiopyrano[3,2-b]indole]",28.3 mg/kg,400 mg/kg,17.8 mg/kg,,,,
"CNCC1CC[S+]([O-])c2c1n(C)c1ccccc21 (centres unmarked) [Compound 4, 4-Methylaminomethyl-5-methyl-2,3,4,5-tetrahydrothiopyrano[3,2-b]indole 1-oxide]",,> 1000 mg/kg,49 mg/kg,,,,
C=CCn1c2c(c3ccccc31)SCCC2CNC (centres unmarked) [Compound 5],17.5 mg/kg,700 mg/kg,11.3 mg/kg,,,,
CCN(CC)CCN(C)CC1CCSc2c1n(C)c1ccccc21 (centres unmarked) [Compound 6],13.4 mg/kg,700 mg/kg,25.3 mg/kg,,,,
CN(C)CCCN1c2ccccc2CCc2ccccc21 [Imipramine],,,,4.5 mg/kg,6 mg/kg,102 mg/kg,ED50 [9]: 56 mg/kg; % of decrease of spontaneous locomotion ([9]; 25 mg/kg): 19.1%; % of decrease of spontaneous locomotion ([9]; 50 mg/kg): 56.0%; % of decrease of spontaneous locomotion ([9]; 100 mg/kg): 62.9%
"CN[C@@H](C)Cc1ccccc1 [Methamphetamine, reference compound]",,,,,,,"ED50 ([4]; mice): 0.6 mg/kg; % of increase of spontaneous locomotion ([4]; mice, 0.5 mg/kg): 45.4%; % of increase of spontaneous locomotion ([4]; mice, 1 mg/kg): 62.5%; % of increase of spontaneous locomotion ([4]; mice, 2 mg/kg): 137.8%"
"CNCC1CCSc2[nH]c3ccccc3c21 (centres unmarked) [Ref., 4methylaminomethyl-2,3,4,9-tetrahydro-thiopyrano [3,2b]indole HCl salt, reference compound]",,330 mg/kg,4.2 mg/kg,> 50 mg/kg,> 50 mg/kg,8.4 mg/kg,ED50 [9]: 43 mg/kg; effect on spontaneous locomotion (in words) ([9]; Table 4): decreases the activity; % of decrease of spontaneous locomotion ([9]; 25 mg/kg): 7.4%; % of decrease of spontaneous locomotion ([9]; 50 mg/kg): 75.3%; % of decrease of spontaneous locomotion ([9]; 100 mg/kg): 97.2%; hallucinogenic activity [5]: does
